From US20180369186A1, “METHOD FOR MODULATING AUTOPHAGY AND APPLICATIONS THEREOF” (JAWAHARLAL NEHRU CENTRE FOR ADVANCED SCIENTIFIC RESEARCH, priority 2015, published 2018)

How the values were obtained:
[1] = tested on: SH-SY5Y cells overexpressing EGFP-α-synuclein; test: Cell viability of SH-SY5Y cells overexpressing α-synuclein (CellTitre-Glo); type: cell-based, human
Method: SH-SY5Y cells are seeded on a 96 well plate and transfected with GFP-SNCA only and/or is cotransfected with shRNA GSK3B and GFP-SNCA. To cells, the drugs were added (24 h) after 48 h of transfection. Then, the cell viability was measured using the CellTitre-Glo® (Promega) and luminescence was measured using Varioskan Flash (Thermo Scientific).
SH-SY5Y cells are seeded onto tissue culture treated 96 well plate and then transfected with EGFP-α-synuclein only and/or co-transfected with siRNA. To cells, appropriate drugs are added (24 h) after 48 h of transfection. Using luminescence-based CellTitre-Glo® (Promega) kit, the cell viability is assayed using automated microtitre plate reader Varioskan Flash (Thermo Scientific) […].

[2] = tested on: DAergic neurons in SNpc; test: MPTP mouse model: LC3 and A11 puncta in DAergic neurons of SNpc; type: in vivo
Method: The sequential immunolabeling procedure is used to co-label the TH and LC3 and/or A11. First, the midbrain sections are equilibrated with 0.1 M PBS (pH 7.4) for 10 min and then incubated with buffered bovine serum albumin (3%) for 4 h to block non-specific epitopes. Then, the sections are incubated in rabbit anti-LC3 antibody (1:1000) and/or anti-oligomer antibody (A11, 1:1000) for 72 h at 4° C. After subsequent washes, the sections are incubated in corresponding fluorescent secondary antibody (1:200) at 4° C., overnight.
Co-labeling with TH is performed on the same sections using rabbit anti-TH antibody (1:500), followed by secondary labeling. PBST (0.01 M, pH 7.4) is used as both working and washing buffer. Sections are then mounted using Vectashield hardset mounting medium.

[3] = tested on: EGFP-α-synuclein; test: EGFP-α-synuclein degradation assay in SH-SY5Y cells; type: cell-based, human
Method: For EGFP-α-synuclein degradation assay, equal numbers of sub-confluent SH-SY5Y cells are seeded in 6 well dishes and allowed to attach for 24 h. Cells are transfected with EGFP-α-synuclein plasmid using Lipofectamine 2000 (Life technologies) and allowed to express for 24 h.
After treatments, cells are collected in Laemmli buffer to perform LC3 processing assay, P70S6K, GSK3β and 4E-BP1 immunoblotting. To validate EGFP-α-synuclein degradation by 6-Bio, treated cells are scraped and collected in growth medium. After washing with phosphate buffer, pellets are lysed in Laemmli buffer and boiled for 10 min.
Samples are electrophoresed on SDS-PAGE (8-15%) and then transferred onto PVDF (Bio-Rad) membrane using Transblot turbo (Bio-Rad). Transferred blots are stained with Ponceau S, probed with appropriate primary antibodies overnight and subsequently horseradish peroxidase conjugated secondary antibody. Signals are developed using enhanced chemiluminescence substrate (Clarity, Bio-Rad), imaged using a gel documentation system (G-Box, Syngene) and bands are quantified using image software (NIH). (FIGS. 4F and 5A)

[4] = tested on: EGFR; test: EGFR trafficking (endocytosis-mediated EGFR degradation); type: cell-based, human; conditions: HeLa; 100 ng/ml EGF; 0-3 hours
Method: HeLa cells are plated on 6 well plates and allowed to attach on the surface. The cells are washed with PBS and then starved in DMEM (serum free media) for 3 hours. Pre-treatment with compounds is carried out for 1 hour, following which they are pulsed with 100 ng/ml of EGF and samples are collected at 0, 1, 2 and 3 hours.

[5] = tested on: p62, MAP1LC3B-II; test: p62 and MAP1LC3B immunoblotting in Atg5+/+ and Atg5−/− MEFs; type: cell-based, mouse; conditions: 5 μM, 24 h
Method: Western blotting is performed using standard methods. Immunoblotting in MEFs is carried out as described previously. Dilutions of primary antibodies used are as follows: Anti-p62 1:1000 (Progen Biotechnik, GP62-C), Anti-MAP1LC3B 1:3000 (Nevus Biologicals, NB100-2220) and Anti-GAPDH (Cell Signalling Technologies, 2118S). Secondary antibodies conjugated to HRP are used at 1:10000 dilution as follows: Anti-Guinea-Pig-HRP (Abeam, ab50210) and Anti-Rabbit-HRP (Calbiochem, 401393).

[6] = tested on: lace plant (Aponogeton madagascariensis) cells; test: Lace plant leaf MDC staining of punctate structures; type: cell-based
Method: Axenic lace plant cultures are grown in magenta boxes and prepared according to Gunawardena et al. Leaves in the window stage are removed from the corm and rinsed thoroughly with distilled water prior to being sectioned into 2 mm^2 pieces. For starvation treatments, window stage leaves are removed from the plant, placed in distilled water and kept in the dark overnight.
Leaf sections are stained with monodansylcadaverine (MDC; 300 μM) (Sigma, D4008) and simultaneously treated with autophagy modulators for 2 hours in the dark. (1 hour vacuum infiltration at 15 psi). Treatment times, along with stain and modulator applications are optimized using concentration gradients followed by microscopy. The optimized concentrations are 5 μM rapamycin (Enzo Life Sciences (BML A275-0005), 5 μM wortmannin (Santa Cruz Biotechnology, sc-3505), 1 μM concanamycin A (Santa Cruz Biotechnology, sc-202111), 50 μM Bay 11 (Sigma, B5556) and 50 μM ZPCK (Sigma, 860794).
Tissue sections are then rinsed and mounted in distilled water prior to being scanned using a Nikon Eclipse Ti confocal microscope (Nikon 40X/1.30, Plan Fluor, 405 nm excitation and 450/30 nm emission). Areoles in the early phases of PCD are scanned to avoid cellular debris. The mean number of puncta are quantified for each treatment group with a minimum of four independent experiments using NIS Elements Advanced Research software. Additionally, starvation treatment leaves are also exposed to 5 μM, wortmannin, 50 μM Bay11 and 50 μM ZPCK treatments and then qualitatively assessed via confocal microscopy.

[7] = tested on: HeLa and SH-SY5Y cells; test: Cell viability of HeLa and SH-SY5Y after 72 h (CellTitre Glo); type: cell-based, human; conditions: various concentrations
Method: In another embodiment of the present disclosure, FIG. 47 illustration non-toxicity of XCT 790 to cells (Hela and SHSY5Y) and scheme for α-synculein toxicity assay. Cell viability of cell lines like HeLa (a) and SH-SY5Y (b) after 72 h of XCT 790 treatments for various indicated concentrations. Cell viability was assayed using CellTitre Glo (Promega) kit.

[8] = 5 mg/kg, co-administered with MPTP

Row | SMILES | cell viability of SNCA over expressed SH-SY5Y cells ([1]; SNCA over expressed for 72 h) | cytoprotection when GSK3B expression is silenced ([1]; shRNA GSK3B silenced, SNCA over expressed) | LC3B puncta per neuron, MPTP vs MPTP+Co ([2]; 5 mg/kg, co administered with MPTP) | reduction in A11 positive toxic aggregates, MPTP vs MPTP+Co [2, 8] [fold] | p-GSK3B signals in DAergic neurons ([2]; 6-Bio only and MPTP+Co cohorts) | reduction of EGFP-α-synuclein levels ([3]; 5 μM, 24 h, versus untreated) [fold] | EGFP-α-synuclein levels on co-treatment with 3-MA ([3]; with 3-methyl adenine (5 mM)) | degradation of EGFR over time upon EGF treatment [4] | MAP1LC3B-II levels in Atg5+/+ MEFs [5] | endogenous p62 levels in Atg5+/+ MEFs [5] | endogenous p62 levels in Atg5−/− MEFs [5] | mean number of punctate structures per cell (MDC) ([6]; 2 hours, 5 μM wortmannin, 50 μM Bay11, 1 μM concanamycin A, rapamycin, 50 μM ZPCK, control 0.99±0.12) | puncta in overnight starvation leaves ([6]; overnight starvation combined with 5 μM wortmannin, 50 μM Bay11 or 50 μM ZPCK) | increase in cell viability, untreated vs treated ([1]; α-syn over expressed cells, 5 μM) [fold] | cell viability, XCT 790 vs XCT 790+3-MA ([1]; α-syn over expressed cells, with 3-MA) [fold] | LC3 puncta per neuron, compound only vs placebo/vehicle ([2]; 5 mg/kg of body weight, compound only cohort) [fold] | aggregates in compound only cohort vs vehicle ([2]; 5 mg/kg, XCT 790 only) | LC3 puncta per cell, vehicle vs MPTP+Co [2, 8] [fold] | toxicity to cells [7]
1 | O=C1Nc2cc(Br)ccc2/C1=C1/Nc2ccccc2/C1=N\O [6-Bio, (2′Z,3′E)-6-Bromoindirubin-3′-oxime] | significantly increased | marginal cytoprotection | ~2,5 fold | ~7 | Reduced p-GSK3B signals | ~2 | does not change | – | – | – | – | – | – | – | – | – | – | – | –
2 | Cc1ccc(S(=O)(=O)/C=C/C#N)cc1 [Bay11, 3-[(4-methylphenyl)sulfonyl]-(2E)-propenenitrile] | – | – | – | – | – | – | – | no difference in the degradation of EGFR | reduces MAP1LC3B-II levels | significantly increases endogenous p62 levels | no significant effect | 0.28±0.07 | fewer puncta | – | – | – | – | – | –
3 | COc1cc(C=C(C#N)C(=O)Nc2nnc(C(F)(F)F)s2)ccc1OCc1ccc(C(F)(F)F)cc1C(F)(F)F [XCT 790, 3-[4-(2,4-Bis-trifluoromethylbenzyloxy)-3-methoxyphenyl]-2-cyano-N-(5-trifluoromethyl-1,3,4-thiadiazol-2-yl)acrylamide] | – | – | – | ~6 | – | – | – | – | – | – | – | – | – | ~4 | ~4 | ~3 | comparable to that of vehicle cohort | ~3 | non-toxicity
